Measurements from patent publication US9145389B2, “Benzimidazole compound crystal” (Takeda Pharmaceutical Company Limited, priority 1999, dated 2015).

Experiments:
[1] = test system: Gastric Mucosal Injury Due to Stress of Water Immersion Restraint in Rat; assay: Suppressive action on gastric mucosal injury due to stress of water immersion restraint in rat; format: in vivo; settings: male SD rats, 3 mg/kg orally 30 minutes before stressing
Method: Suppressive Action on Gastric Mucosal Injury Due to Stress of Water Immersion Restraint in Rat
Male SD rats (7 weeks of age, weighing 230 to 250 g) were fasted for 24 hours, after which they were stressed by being housed in restraint cages and immersed to below the xiphoid process in a standing position in a 23° C. constant-temperature water chamber. After 5 hours, the rats were removed from the cages and sacrificed using gaseous carbon dioxide, and their stomachs excised. After the lower portion of the esophagus was clipped, a 1% formalin solution (10 ml) was injected into the stomach via the duodenum, which was then occluded, and the stomach was immersed in the same solution. After 10 minutes, an incision was made along the greater curvature, and the length (mm) of each mucosal injury was measured under a stereomicroscope. The overall sum of the injury lengths in each stomach was taken as the gastric mucosal injury index.
The crystals of (R)-2-[[[3-methyl-4-(2,2,2-trifluoroethoxy)-2-pyridinyl]methyl]sulfinyl]-1H-benzimidazole (R(+)-lansoprazole) as obtained in Example 2 were suspended in 0.5% methyl cellulose (pH 9.5) containing 0.05 M NaHCO3 and orally administered at 30 minutes before stressing (dosing volume 2 ml/kg). Each treatment group comprised 9 animals. The control group (solvent administration group) and the drug administration group were compared by Steel's test.

[2] = Stability during storage at 60° C. (stopper removed), content by HPLC; format: physicochemical; settings: for Description: appearance after storage at 60° C. (exposed)
Method: The crystals of R(+)-lansoprazole as obtained in Example 2 (about 5 mg) and amorphous R(+)-lansoprazole as obtained in Reference Example 1 (about 5 mg) were each taken in a colorless glass bottle, and their stability during storage at 60° C. (stopper removed) was examined. A 25 ml solution (concentration: about 0.2 mg/ml) of the sample after completion of storage in the mobile phase, along with a standard solution prepared using the initial lot, was analyzed under the HPLC conditions shown below, and the R(+)-lansoprazole content (residual percentage) was calculated from the peak area obtained.

SMILES	Gastric mucosal injury index ([1]; 5 hours water immersion restraint, mean ± standard error, 9 animals)	Suppression rate ([1]; versus control group)	Description ([2]; 1 week, listed as Crystal)	Description ([2]; 2 weeks, listed as Crystal)	Description ([2]; 4 weeks)	Content (Residual percentage) ([2]; storage at 60° C. (exposed), 1 week, listed as Crystal)	Content (Residual percentage) ([2]; storage at 60° C. (exposed), 2 weeks, listed as Crystal)	Content (Residual percentage) ([2]; storage at 60° C. (exposed), 4 weeks)	Content retained ([2]; storage at 60° C. (exposed), for up to 4 weeks)	Description ([2]; 1 week, listed as Amorphous)	Description ([2]; 2 weeks, listed as Amorphous)	Content (Residual percentage) ([2]; storage at 60° C. (exposed), 1 week)	Content (Residual percentage) ([2]; storage at 60° C. (exposed), 1 week, listed as Amorphous)	Content (Residual percentage) ([2]; storage at 60° C. (exposed), 2 weeks)	Content (Residual percentage) ([2]; storage at 60° C. (exposed), 2 weeks, listed as Amorphous)
Cc1c(OCC(F)(F)F)ccnc1C[S@@+]([O-])c1nc2ccccc2[nH]1 [Example 2, (R)-2-[[[3-methyl-4-(2,2,2-trifluoroethoxy)-2-pyridinyl]methyl]sulfinyl]-1H-benzimidazole]	0.2 ± 0.2 mm	98.0%	Light-brown	Brown	Brown	97.0%	93.8%	91.7%	exceeding 90%						
Cc1c(OCC(F)(F)F)ccnc1C[S@@+]([O-])c1nc2ccccc2[nH]1 [Reference Example 1, (R)-2-[[[3-methyl-4-(2,2,2-trifluoroethoxy)-2-pyridinyl]methyl]sulfinyl]-1H-benzimidazole, reference compound]										Brown	Blackish brown	70.8%	70.8%	57.5%	57.5%
